Test results published in ChEMBL document CHEMBL1201862, “PubChem BioAssay data set” (2004).
The source made the active and inactive calls.

Key:
[1] = Shn3 3'UTR reporter inhibitors, dose response, cell-based, Clone20 osteoblasts, firefly luciferase, cherry-picked (AID 624132); format: functional;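 note: firefly luciferase luminescence from reporter carrying the Shn3 3'UTR in osteoblasts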
[2] = HepG2 cell cytotoxicity, dose response, cytotoxicity control for Shn3 inhibitor project, CellTiter-Glo, cherry-picked (AID 624134); format: functional, cell-based
[3] = control 3'UTR Renilla luciferase suppression, dose response, counter-screen for Shn3 inhibitor project, cell-based, Clone20-Shn3RL, cherry-picked (AID 624133); format: functional
[4] = growth suppression of PTEN-null colon cells, dose response, cell-based, HCT116 PTEN knockout (AID 1047); format: functional;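 note: HCT116 colon tumor cells with PTEN knocked out; cells exposed to compound for 60 hours before readout; potency for loss of cell viability measured by luminescence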
[5] = growth suppression of beta-catenin-knockout colon cells, dose response, cell-based, HCT116, human colon tumor (AID 1045); format: functional;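 note: HCT116 colon tumor cells with beta catenin knocked out; cells exposed to compound for 60 hours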
[6] = inhibitors of HIV Env-driven cell fusion, dose response, cherry-pick (AID 652057); format: functional, cell-based
[7] = ZM109 Env clade C HIV-1 fusion inhibitors, dose response, HeLa effector, CEM target cells, luciferase, cherry-pick (AID 652058); format: functional, cell-based
[8] = inhibitors of clade B AD8 Env fusion, dose response, cell-based, cherry-pick (AID 652062); format: functional;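 note: luciferase signal from cell-cell fusion driven by HIV-1 clade B AD8 Env; potency is for inhibitors of fusion seen as a drop in luminescence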
[9] = target: T1, Heat shock factor protein 1 (Mus musculus, UniProt P38532); experiment: HSF1 potentiators in luciferase reporter cells, confirmation, cell-based, NIH3T3, luminescence, dose retest (AID 435004); format: functional;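 note: stress induced by proteasome inhibitor MG132 added 30 min after compound; luciferase reporter driven by HSF1 response element in NIH3T3 cells; actives raise luminescence as potentiators of the MG132 stress response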
T1 sequence (P38532 whole entry): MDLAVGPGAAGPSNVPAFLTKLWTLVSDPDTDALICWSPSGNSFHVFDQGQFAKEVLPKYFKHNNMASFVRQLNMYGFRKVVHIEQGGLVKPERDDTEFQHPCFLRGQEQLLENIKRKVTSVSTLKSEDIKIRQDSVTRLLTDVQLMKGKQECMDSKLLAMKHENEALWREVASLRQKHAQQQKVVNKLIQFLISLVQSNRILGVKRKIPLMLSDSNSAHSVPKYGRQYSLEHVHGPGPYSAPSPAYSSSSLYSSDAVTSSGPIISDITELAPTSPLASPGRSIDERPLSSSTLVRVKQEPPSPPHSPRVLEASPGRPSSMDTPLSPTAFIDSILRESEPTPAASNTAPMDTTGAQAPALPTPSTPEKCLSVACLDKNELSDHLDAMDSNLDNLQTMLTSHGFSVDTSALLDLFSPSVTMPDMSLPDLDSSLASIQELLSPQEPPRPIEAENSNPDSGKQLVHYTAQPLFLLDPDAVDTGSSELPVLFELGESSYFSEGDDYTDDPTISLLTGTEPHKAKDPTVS

[10] = cells; format: functional, cell-based
[11] = cells; format: functional, cell-based; remark: listed apart in the source
[12] = inhibitors of firefly luciferase expression or activity, dose response, H4 neuroglioma cells, luminescence (AID 1990); format: functional, cell-based
[13] = system: Streptococcus sp. 'group A'; experiment: growth inhibition of control SK(-) GAS strain, dose response, counter-screen for streptokinase expression inhibitor project, luminescence, kanamycin, BacTiterGlo, confirmation (AID 1900); format: functional, organism-based
[14] = Luminescence Cell-Based Dose Response HTS to Identify Inhibitors of 5'UTR Stem-Loop Driven Prion Protein mRNA Translation in H4 Neuroglioblastoma Cells. [Related pubchem assays: 1827 (Project Summary), 1813 (Primary HTS)]; format: functional
[15] = inhibitors of SNCA 5'UTR-driven reporter translation, confirmation, H4 neuroglioma cells, luminescence (AID 1988); format: functional, cell-based
[16] = target: T2, Streptokinase A (Streptococcus pyogenes serotype M1, UniProt P10520); experiment: S. pyogenes streptokinase expression inhibitors, potency, dose response, plasminogen activation absorbance, OD405 (AID 1914); format: functional, Streptococcus pyogenes M1 GAS;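 note: secreted streptokinase activity via plasminogen activation per viability signal from cell pellet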
T2 sequence (P10520 whole entry): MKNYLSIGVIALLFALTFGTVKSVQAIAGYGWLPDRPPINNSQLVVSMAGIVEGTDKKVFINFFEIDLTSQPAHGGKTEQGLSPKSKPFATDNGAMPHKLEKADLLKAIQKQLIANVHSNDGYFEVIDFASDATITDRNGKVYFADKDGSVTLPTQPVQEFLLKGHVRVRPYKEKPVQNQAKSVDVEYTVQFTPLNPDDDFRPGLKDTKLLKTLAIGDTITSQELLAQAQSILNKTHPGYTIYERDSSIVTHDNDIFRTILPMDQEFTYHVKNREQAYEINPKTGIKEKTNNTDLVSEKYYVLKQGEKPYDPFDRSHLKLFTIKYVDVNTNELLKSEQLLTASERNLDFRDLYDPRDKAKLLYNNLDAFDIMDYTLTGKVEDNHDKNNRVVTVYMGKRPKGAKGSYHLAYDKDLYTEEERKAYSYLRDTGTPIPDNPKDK

[17] = microbe, parasite or virus in culture; format: functional; details: Mycobacterium tuberculosis
[18] = system: Streptococcus; experiment: Group A Streptococcus viability loss, dose response, counter-screen for streptokinase expression inhibitor project, luminescence, BacTiterGlo (AID 1915); format: functional, organism-based;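 note: potency for reduction of bacterial viability or growth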
[19] = system: H9c2; experiment: cells; format: functional, cell-based; details: Rattus norvegicus, H9c2, Myocardium;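 note: confirmatory concentration-response retest of ultra-high-throughput screening hits for modulation of myocardial damage; cell death induced by hydrogen peroxide oxidative stress; compound pretreatment for 60 min then peroxide exposure for 2 h; potency is for protecting the cells against peroxide damage rather than for killing them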
[20] = inhibitors of intracellular T. cruzi replication, confirmation, NIH3T3 host cells, beta-gal luminescence (AID 2044); format: functional, cell-based;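 note: intracellular parasites grown in NIH/3T3 mouse fibroblasts as host cells; luminescent beta-galactosidase reporter signal from transgenic T. cruzi replicating inside host cells; inhibitors lower the luminescence signal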
[21] = cytotoxicity toward NIH3T3 fibroblasts, dose response, counter-screen, cell-based, ATP luminescence, mouse fibroblasts (AID 2010); format: functional;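 note: cells exposed to compound for about 90 hours before reading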
[22] = HEp-2 cell cytotoxicity, dose response, cytotoxicity control for RSV inhibitor project, HTS (AID 2410); format: functional; details: human respiratory syncytial virus
[23] = Luminescence Cell-Based Dose Retest to Confirm Inhibitors of Cancer Stem Cells. [Related pubchem assays (depositor defined):AID2717, AID2721]; format: functional; details: Homo sapiens
[24] = target: Paired box protein Pax-8 (Homo sapiens, UniProt Q06710); experiment: inhibitors of PAX8-driven TPO luciferase reporter, dose response, RMG-I cells, cherry-pick (AID 687027); format: functional, cell-based;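 note: luciferase reporter driven by Pax8 target thyroperoxidase promoter measured by SteadyGlo luminescence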
[25] = target: T1, Heat shock factor protein 1; experiment: inhibition of MG132-induced HSE-luciferase signal, confirmation, cell-based, NIH3T3, luminescence, dose retest (AID 2382); format: functional;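 note: NIH3T3 fibroblasts with HSF1-driven luciferase reporter stressed by proteasome inhibitor MG132; luminescence from HSF1-driven luciferase expression after 8 hours of MG132 stress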
[26] = target: Cytochrome P450 2D6 (Homo sapiens, UniProt P10635);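 note: CYP2D6 member of a cytochrome P450 panel assay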
[27] = target: Cytochrome P450 2C9 (Homo sapiens, UniProt P11712)
Cytochrome P450 2C9, sequence (P11712 whole entry): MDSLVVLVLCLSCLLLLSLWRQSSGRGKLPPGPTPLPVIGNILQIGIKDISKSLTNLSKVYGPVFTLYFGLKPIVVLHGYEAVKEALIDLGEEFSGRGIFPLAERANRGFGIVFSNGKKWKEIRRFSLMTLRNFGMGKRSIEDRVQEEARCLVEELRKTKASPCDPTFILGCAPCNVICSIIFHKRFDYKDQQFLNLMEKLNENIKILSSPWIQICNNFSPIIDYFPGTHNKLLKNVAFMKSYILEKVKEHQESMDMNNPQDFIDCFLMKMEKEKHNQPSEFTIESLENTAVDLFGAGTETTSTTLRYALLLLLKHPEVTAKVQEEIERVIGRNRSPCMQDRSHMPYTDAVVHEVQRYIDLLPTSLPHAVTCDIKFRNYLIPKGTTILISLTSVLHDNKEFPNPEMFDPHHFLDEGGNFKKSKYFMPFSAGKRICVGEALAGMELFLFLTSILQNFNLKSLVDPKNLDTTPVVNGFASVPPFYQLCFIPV

Paired box protein Pax-8, sequence (Q06710 whole entry): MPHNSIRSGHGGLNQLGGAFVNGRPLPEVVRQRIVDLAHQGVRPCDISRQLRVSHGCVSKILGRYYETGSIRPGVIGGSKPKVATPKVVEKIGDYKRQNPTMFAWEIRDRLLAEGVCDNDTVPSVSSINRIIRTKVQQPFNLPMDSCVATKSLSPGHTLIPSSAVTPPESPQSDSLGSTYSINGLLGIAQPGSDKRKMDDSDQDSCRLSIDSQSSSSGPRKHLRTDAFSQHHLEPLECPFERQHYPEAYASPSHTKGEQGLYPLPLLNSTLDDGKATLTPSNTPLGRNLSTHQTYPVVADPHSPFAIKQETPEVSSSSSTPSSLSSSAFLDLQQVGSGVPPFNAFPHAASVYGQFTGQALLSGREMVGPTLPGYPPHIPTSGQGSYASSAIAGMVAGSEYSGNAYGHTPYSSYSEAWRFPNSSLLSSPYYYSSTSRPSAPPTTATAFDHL
Cytochrome P450 2D6, sequence (P10635 whole entry): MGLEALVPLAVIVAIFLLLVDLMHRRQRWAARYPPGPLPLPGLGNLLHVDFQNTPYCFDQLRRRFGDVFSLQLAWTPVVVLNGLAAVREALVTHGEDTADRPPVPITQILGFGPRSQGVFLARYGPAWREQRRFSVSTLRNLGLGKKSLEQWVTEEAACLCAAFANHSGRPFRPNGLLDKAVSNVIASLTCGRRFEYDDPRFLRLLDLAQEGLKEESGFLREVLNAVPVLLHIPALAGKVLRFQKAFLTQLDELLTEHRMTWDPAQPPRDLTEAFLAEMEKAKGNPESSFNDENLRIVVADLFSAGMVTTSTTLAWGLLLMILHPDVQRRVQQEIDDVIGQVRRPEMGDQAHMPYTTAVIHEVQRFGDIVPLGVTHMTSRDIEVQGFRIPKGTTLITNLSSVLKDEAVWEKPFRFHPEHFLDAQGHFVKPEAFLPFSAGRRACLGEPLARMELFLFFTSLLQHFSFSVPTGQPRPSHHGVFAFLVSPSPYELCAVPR

Compound: CN(Cc1ccc(OC(F)F)cc1)C(=O)c1cccc(S(=O)(=O)N2CCN(c3ccccc3)CC2)c1
- AC50 [1]: 2.59 µM (active)
- AC50 [2]: 62.1 µM (active)
- AC50 [3]: 1.65 µM (active)

Compound: Cc1ccc(S(=O)(=O)N2CCN(CC(=O)N/N=C\C(Cl)=C\c3ccccc3)CC2)cc1
- EC50 [4]: 44.2 µM (active)
- EC50 [5]: 39.3 µM (active)

Compound: CCC12CN(S(=O)(=O)c3ccc(C)cc3)CC(CC)(CN(S(=O)(=O)c3ccc(C)cc3)C1)C2=O
- AC50 [1]: 3.48 µM (active)
- AC50 [2]: 66.7 µM (active)
- AC50 [6]: 2.44 µM (active)
- AC50 [7]: 42.7 µM (active)
- AC50 [8]: 22 µM (active)

Compound: CN(C)CCNC(=O)/C(=C/c1ccc(-c2cccc(Cl)c2)o1)NC(=O)c1ccccc1
- EC50 [4]: 10.3 µM (active)
- EC50 [5]: 10.3 µM (active)
- EC50 [9]: > 260 µM (inactive)

Compound: O=C(NCCCN1CCOCC1)c1cc(-c2ccccc2)on1
- EC50 [10]: 11.5 µM (active)
- EC50 [11]: > 350 µM (not active)

Compound: CC1(C)Cc2c(sc(NC(=O)c3ccc(C(=O)c4ccccc4)cc3)c2C(N)=O)C(C)(C)N1
- EC50 [12]: 10.3 µM (active)
- EC50 [13]: 26.3 µM (active)
- EC50 [14]: 16.9 µM (active)
- EC50 [15]: 11.6 µM (active)
- EC50 [16]: > 150 µM (not active)
- CC50 [17]: 20.7 µM (active)
- EC50 [18]: > 150 µM (not active)

Compound: CCOC(=O)C1CCCN(C(=O)c2ccc3nc(-c4ccccc4)c(-c4ccccc4)nc3c2)C1 (configuration not stated)
- EC50 [10]: > 350 µM (not active)
- EC50 [11]: > 350 µM (not active)

Compound: Cc1cnc(NC(=O)NCC2CCCC(CNC(=O)Nc3ncc(C)s3)C2)s1 (configuration not stated)
- CC50 [17]: > 40 µM (active)

Compound: C[C@H](CO)N1C[C@H](C)[C@H](CN(C)S(=O)(=O)c2ccccc2)Oc2ccc(NS(=O)(=O)c3ccc(F)cc3)cc2CC1=O
- AC50 [6]: 15.1 µM (active)
- AC50 [7]: 28.8 µM (active)

Compound: CCNC(=O)COc1cccc(C(=O)NCc2ccccc2)c1
- EC50 [10]: > 350 µM (not active)
- EC50 [11]: > 350 µM (not active)

Compound: CC(OC(=O)Cc1nnc(O)c2ccccc12)C(=O)Nc1ccccc1[N+](=O)[O-] (configuration not stated)
- IC50 [19]: > 79 µM (inactive)

Compound: Cc1cc(C)cc(-n2c(N)c(C(=O)Nc3c(C)n(C)n(-c4ccccc4)c3=O)c3nc4ccccc4nc32)c1
- EC50 [20]: 1.21 µM (active)
- EC50 [4]: 11.8 µM (active)
- EC50 [21]: > 60 µM (not active)
- EC50 [5]: 13 µM (active)

Compound: O=c1cc(-c2ccncc2)oc2ccccc12
- CC50 [22]: 36.7 µM (active)
- IC50 [19]: > 79 µM (inactive)

Compound: CC(C)OCCCNC(=O)c1c(N)n(Cc2cccs2)c2nc3ccccc3nc12
- EC50 [4]: 84.7 µM (active)
- EC50 [5]: 216 µM (active)
- AC50 [23]: 3.51 µM (active)

Compound: CN(Cc1ccccc1)N=Nc1[nH]cnc1C(N)=O
- AC50 [24]: 21.2 µM (active)

Compound: COc1ccc(NC(=O)CCC(=O)N(Cc2ccc(OC)c(OC)c2)c2nccs2)cc1
- EC50 [10]: > 350 µM (not active)
- EC50 [11]: > 350 µM (not active)

Compound: COCCCn1c(C)nc2c(c1=O)c1nc3ccccc3nc1n2CCc1ccccc1
- IC50 [19]: 11.7 µM (active)

Compound: Cc1csc(SCc2nc(O)c3c4c(sc3n2)CCC4)n1
- IC50 [19]: 17.1 µM (active)

Compound: O=c1cc(CN2CCN(S(=O)(=O)c3cccc(Cl)c3)CC2)c2ccc(O)cc2o1
- IC50 [19]: > 79 µM (inactive)

Compound: COc1ccc(/C=C2\SC(=O)N(CCC(=O)N(C)C3CCS(=O)(=O)C3)C2=O)cc1 (configuration not stated)
- EC50 [10]: > 350 µM (not active)
- EC50 [11]: > 350 µM (not active)

Compound: COc1ccc2nc(O)c(CN(Cc3cccnc3)S(=O)(=O)c3ccccc3F)cc2c1
- EC50 [25]: 6.06 µM (active)
- IC50 [19]: > 79 µM (inactive)

Compound: Cc1c(NC(=O)CSc2cccc3cccnc23)c(=O)n(-c2ccccc2)n1C
- EC50 [20]: 1.31 µM (active)
- EC50 [4]: 17.4 µM (active)
- EC50 [21]: > 30 µM (not active)
- EC50 [5]: 17 µM (active)

Compound: O=[N+]([O-])c1cc2c(ccc3occc32)o1
- AC50 [24]: 2.49 µM (active)

Compound: O=C(Nc1nnc(-c2ccco2)o1)c1ccc2ccccc2c1
- EC50 [13]: 12.8 µM (active)
- EC50 [16]: > 150 µM (not active)
- EC50 [18]: > 150 µM (not active)
- IC50 [19]: > 79 µM (inactive)

Compound: Cc1ccc(S(=O)(=O)N(C)C[C@@H]2Oc3ccc(NS(=O)(=O)c4ccccc4)cc3CC(=O)N([C@H](C)CO)C[C@@H]2C)cc1
- AC50 [6]: 2.75 µM (active)
- AC50 [7]: 8.38 µM (active)
- AC50 [8]: 26.6 µM (active)

Compound: O=C(/C=C/c1cn(-c2ccccc2)nc1-c1cccnc1)c1ccco1
- CC50 [17]: 11.5 µM (active)

Compound: CC1(C)CC2CC(C)(CN2c2ncnc3ccc(Br)cc23)C1 (configuration not stated)
- AC50 [1]: 2.11 µM (active)
- AC50 [2]: 37.2 µM (active)
- AC50 [3]: 0.972 µM (active)

Compound: CS(=O)(=O)Nc1ccc2c(c1)[C@H]1C[C@H](CC(=O)NCc3ccc(-c4ccccc4)cc3)O[C@H](CO)[C@H]1O2
- AC50 [8]: 39 µM (active)

Compound: CC1CC/C(=C\c2ccc3c(c2)OCO3)C(=O)/C1=C/c1ccc2c(c1)OCO2 (configuration not stated)
- EC50 [4]: 13.8 µM (active)
- EC50 [5]: 14.3 µM (active)
- AC50 [23]: 2.92 µM (active)
- AC50 [26]: 2.51 µM (inconclusive)
- AC50 [27]: 6.31 µM (inconclusive)

Compound: O=C(CNC(=O)c1nc[nH]c1C(=O)NCC(=O)OCc1ccccc1)OCc1ccccc1
- IC50 [19]: 41 µM (inactive)

Compound: FC(F)(F)c1cnc(N2CCN(C(S)=NCc3ccccc3)CC2)c(Cl)c1
- EC50 [10]: > 350 µM (not active)
- EC50 [11]: > 350 µM (not active)

Compound: Cc1ccc(S(=O)(=O)c2nc(-c3ccccc3Cl)oc2N(C)C)cc1
- EC50 [10]: > 350 µM (not active)
- EC50 [11]: > 350 µM (not active)

Compound: CC(=O)c1ccc2c(c1)C1C(Cl)C(Sc3ccccc3[N+](=O)[O-])CC1C(c1ccccc1)N2 (configuration not stated)
- CC50 [17]: > 40 µM (active)
